Data on 13 compounds can be found in patent US7956039B2, “Use of amygdalin analogues for the treatment of psoriasis” (Universitat Politècnica De Catalunya, priority 2004, dated 2011).

The test system of experiment [1] is Blood mononuclear cells. Kind of experiment: Monocyte chemotaxis assay in modified Boyden chamber. As to conditions: for −log[A] (concentration of maximum chemotactic index): concentration [A] at which the maximum chemotactic index occurs; for Chemotactic index (maximum value): ratio of migration distance towards attractant to distance towards buffer, tested 10^−12 to 10^−7 mol/L. The experiment is classed as cell-based, human. Here is the method: Activity of Compounds (I) in Monocyte Chemotaxis Assays
Blood mononuclear cells were isolated from heparinized blood of human volunteers by Ficoll sedimentation. Chemotaxis was measured in a modified Boyden chamber using a Millipore […] that divided the upper and lower compartments. Mononuclear cells (0.5×10^6) in Krebs-Ringer phosphate (KRP) buffer were placed into the upper wells. Compounds (I) were dissolved in DMSO at 10^−2 mol/L, diluted with KRP buffer containing 1 mg/mL of bovine serum albumin and tested in the bottom compartment at a final concentration ranging from 10^−12 to 10^−7 mol/L. For an accurate comparison, the results of the different analogues were expressed as chemotactic index, which is the ratio of the distance of migration towards tested attractant and the distance towards the buffer. Migration in the presence of buffer was only […] (mean±SEM). Maximum migration for CHO-Met-Leu-Phe-OH (FMLP) occurred at 10^−8 mol/L and was […] in these experiments (chemotactic index 1.94±0.03). CD4 receptor binding for the test analogues was confirmed by blocking their chemotactic effects using low concentrations (0.1-0.2 mg/mL) of OKT4, a specific monoclonal antibody for CD4 molecules. In this test, migration response was not influenced by OKT4.

The test system of experiment [2] is monocytes. To be noted: cited from earlier work.

Take `CCC(O[C@@H]1O[C@H](CO[C@@H]2O[C@H](CO)[C@@H](O)[C@H](O)[C@H]2O)[C@@H](O)[C@H](O)[C@H]1O)c1ccccc1` (mixture of isomers) [Compound (I-4), (1 RS)-1-phenylpropyl 6-O-(β-D-glucopyranosyl)-β-D-glucopyranoside]: in experiment [1], the “−log[A] (concentration of maximum chemotactic index)” value was 6 and the “Chemotactic index (maximum value)” value is on record as 0.75.
In the case of `CC(C)(C)C(O[C@@H]1O[C@H](CO[C@@H]2O[C@H](CO)[C@@H](O)[C@H](O)[C@H]2O)[C@@H](O)[C@H](O)[C@H]1O)c1ccccc1` (mixture of isomers) [Compound (I-5), (1RS) 1-phenyl-2,2-dimethylpropyl-6-O-(β-D-glucopyranosyl)-β-D-glucopyranoside], in experiment [1], the “−log[A] (concentration of maximum chemotactic index)” value was 9 and the “Chemotactic index (maximum value)” value was found to be 0.84.
Consider `N#C[C@H](O[C@@H]1O[C@H](CO[C@@H]2O[C@H](CO)[C@@H](O)[C@H](O)[C@H]2O)[C@@H](O)[C@H](O)[C@H]1O)c1ccccc1` [Amygdalin, amygdalin], for which, in experiment [2], the “Chemotactic profile compared with peptide T” value is “chemotactic profile similar to that of peptide T”. In experiment [1], the “−log[A] (concentration of maximum chemotactic index)” value was found to be 10 and the “Chemotactic index (maximum value)” value is on record as 0.63.
For `COc1ccc(CO[C@@H]2O[C@H](CO[C@@H]3O[C@H](CO)[C@@H](O)[C@H](O)[C@H]3O)[C@@H](O)[C@H](O)[C@H]2O)cc1` [Compound (I-1), 4-methoxybenzyl 6-O-(β-D-glucopyranosyl)-β-D-Glucopyranoside], in experiment [1], the “−log[A] (concentration of maximum chemotactic index)” value was 10 and the “Chemotactic index (maximum value)” value came to 0.87.
On the same counts, the results for `OC[C@H]1O[C@@H](OC[C@H]2O[C@@H](OCc3ccccc3)[C@H](O)[C@@H](O)[C@@H]2O)[C@H](O)[C@@H](O)[C@@H]1O` [Compound (I-2), benzyl 6-O-(β-D-glucopyranosyl)4-D-glycopyranoside] are 8 and 0.76.
For the compound `CC(O[C@@H]1O[C@H](CO[C@@H]2O[C@H](CO)[C@@H](O)[C@H](O)[C@H]2O)[C@@H](O)[C@H](O)[C@H]1O)c1ccccc1` (stereo partly drawn) [Compound (I-3), (1 RS)-1-phenylethyl-6-O-(β-D-glucopyranosyl)-β-D-glucopyranoside], in experiment [1], the “−log[A] (concentration of maximum chemotactic index)” value came out at 8 and the “Chemotactic index (maximum value)” value is reported as 0.77.
In the case of `O=C(O)[C@H](O[C@@H]1O[C@H](CO[C@@H]2O[C@H](CO)[C@@H](O)[C@H](O)[C@H]2O)[C@@H](O)[C@H](O)[C@H]1O)c1ccccc1` [Compound (I-6), (2R) (6-O-(β-D-glucopyranosyl)-β-D-glucopyranosyloxy)-phenylacetic acid], in experiment [1], the “−log[A] (concentration of maximum chemotactic index)” value was determined as 9 and the “Chemotactic index (maximum value)” value was determined as 0.85.
As to `NC(=O)[C@H](O[C@@H]1O[C@H](CO[C@@H]2O[C@H](CO)[C@@H](O)[C@H](O)[C@H]2O)[C@@H](O)[C@H](O)[C@H]1O)c1ccccc1` [Compound (I-7)], in experiment [1], the “−log[A] (concentration of maximum chemotactic index)” value is on record as 7 and the “Chemotactic index (maximum value)” value was 0.84.
Consider `C#CC(O[C@@H]1O[C@H](CO[C@@H]2O[C@H](CO)[C@@H](O)[C@H](O)[C@H]2O)[C@@H](O)[C@H](O)[C@H]1O)c1ccccc1` (stereo partly drawn) [Compound (I-8), (1 RS) 1-phenyl-2-propynyl-6-O-(β-D-Glucopyranosyl)-β-D-glucopyranoside], for which, in experiment [1], the “−log[A] (concentration of maximum chemotactic index)” value is 6 and the “Chemotactic index (maximum value)” value was determined as 0.79.
On the same counts, the results for `OC[C@H]1O[C@@H](OC[C@H]2O[C@@H](OCc3ccccc3Cl)[C@H](O)[C@@H](O)[C@@H]2O)[C@H](O)[C@@H](O)[C@@H]1O` [Compound (I-10), 2-chlorobenzyl 6-O-(β-D-gluconyranosyl)-β-D-Glucopyranoside] are 10 and 0.94.
As to `COc1ccc(CO[C@@H]2O[C@H](CO[C@@H]3O[C@H](CO)[C@@H](O)[C@H](O)[C@H]3O)[C@@H](O)[C@H](O)[C@H]2O)c(OC)c1` [Compound (I-11), 2.4-dimethoxybenzyl 6-O-(β-D-glucopyranosyl)-β-D-glucopyranoside], in experiment [1], the “−log[A] (concentration of maximum chemotactic index)” value turned out to be 10 and the “Chemotactic index (maximum value)” value worked out at 0.84.
For `OC[C@H]1O[C@@H](OC[C@H]2O[C@@H](OCCc3ccccc3)[C@H](O)[C@@H](O)[C@@H]2O)[C@H](O)[C@@H](O)[C@@H]1O` [Compound (I-17), 2-phenylethyl 6-O-(β-D-glucopyranosyl)-β-D-glucopyranoside], in experiment [1], the “−log[A] (concentration of maximum chemotactic index)” value worked out at 9 and the “Chemotactic index (maximum value)” value is listed as 0.70.
As for “CHO-Met-Leu-Phe-OH [FMLP, reference compound]”, the “Concentration of maximum migration” value in experiment [1] was 10^−8 mol/L. Also, the Chemotactic index in experiment [1] (at maximum migration, 10^−8 mol/L) came out at 1.94±0.03.
